# Results as given in patent US11453660B2, “Androgen receptor and glucocorticoid receptor modulators” (ONCOSTELLAE, S.L., priority 2017, dated 2022).
# Assays:
# [1] = target: T1, human androgen receptor (Homo sapiens, UniProt P10275, T878A); experiment: Human Androgen Receptor Binding (radioligand binding, LnCap prostate cancer cell line); details: LnCap cells, displacement of [^3H]-methyltrienolone, 2 hours at 37° C.; read-out: AR LNCaP
# T1 construct: endogenously expressed human androgen receptor using the LnCap prostate cancer cell line; endogenous in cells; host or cells: LNCaP prostate cancer cell line (whole cells)
# T1 sequence (P10275 1-920 T878A): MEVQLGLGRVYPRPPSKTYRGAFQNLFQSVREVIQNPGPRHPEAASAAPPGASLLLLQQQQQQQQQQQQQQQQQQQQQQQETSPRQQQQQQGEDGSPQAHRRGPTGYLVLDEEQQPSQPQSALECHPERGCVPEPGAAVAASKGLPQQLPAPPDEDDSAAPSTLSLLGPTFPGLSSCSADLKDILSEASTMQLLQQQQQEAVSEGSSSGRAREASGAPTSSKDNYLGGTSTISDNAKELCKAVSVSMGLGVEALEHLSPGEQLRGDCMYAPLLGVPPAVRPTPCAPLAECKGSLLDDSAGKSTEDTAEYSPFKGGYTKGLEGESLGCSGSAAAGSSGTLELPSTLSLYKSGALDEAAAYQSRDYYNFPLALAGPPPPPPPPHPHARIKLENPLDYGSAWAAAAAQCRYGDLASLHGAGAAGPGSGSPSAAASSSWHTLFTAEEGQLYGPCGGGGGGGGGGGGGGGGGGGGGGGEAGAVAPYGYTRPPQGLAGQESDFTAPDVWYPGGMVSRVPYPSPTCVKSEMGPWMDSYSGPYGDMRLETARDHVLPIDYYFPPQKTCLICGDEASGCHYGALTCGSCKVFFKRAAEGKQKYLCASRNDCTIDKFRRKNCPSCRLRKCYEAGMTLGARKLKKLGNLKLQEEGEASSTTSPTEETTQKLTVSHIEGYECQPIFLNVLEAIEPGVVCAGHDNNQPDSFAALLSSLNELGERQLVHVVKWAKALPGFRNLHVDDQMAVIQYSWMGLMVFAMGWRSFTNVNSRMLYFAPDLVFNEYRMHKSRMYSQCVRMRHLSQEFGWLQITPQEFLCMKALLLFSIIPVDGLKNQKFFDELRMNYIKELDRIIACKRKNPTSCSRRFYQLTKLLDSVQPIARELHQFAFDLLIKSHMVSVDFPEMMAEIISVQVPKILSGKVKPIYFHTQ
# Outline: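 Whole-cell displacement of [3H]-methyltrienolone from endogenous AR (T878A) in LnCap cells, in RPMI with 0.1% BSA and triamcinolone acetonide. Compounds 10 μM to 0.1 nM in 1:10 steps, 2 h at 37 °C; cells washed, SDS-lysed, bound radioactivity by scintillation counting for IC50.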
# [2] = target: T2, Human Glucocorticoid Receptor (Homo sapiens, UniProt P04150); experiment: Competition Binding in IM-9 Human Glucocorticoid Receptor (GR IM-9); details: cytosol from IM-9 cell line, 1.5 nM [3H]-Dexamethasone, 4° C. for 6 hours
# T2 construct: endogenous in cells; host or cells: cytosol from IM-9 cell line
# T2 sequence (P04150 1-777): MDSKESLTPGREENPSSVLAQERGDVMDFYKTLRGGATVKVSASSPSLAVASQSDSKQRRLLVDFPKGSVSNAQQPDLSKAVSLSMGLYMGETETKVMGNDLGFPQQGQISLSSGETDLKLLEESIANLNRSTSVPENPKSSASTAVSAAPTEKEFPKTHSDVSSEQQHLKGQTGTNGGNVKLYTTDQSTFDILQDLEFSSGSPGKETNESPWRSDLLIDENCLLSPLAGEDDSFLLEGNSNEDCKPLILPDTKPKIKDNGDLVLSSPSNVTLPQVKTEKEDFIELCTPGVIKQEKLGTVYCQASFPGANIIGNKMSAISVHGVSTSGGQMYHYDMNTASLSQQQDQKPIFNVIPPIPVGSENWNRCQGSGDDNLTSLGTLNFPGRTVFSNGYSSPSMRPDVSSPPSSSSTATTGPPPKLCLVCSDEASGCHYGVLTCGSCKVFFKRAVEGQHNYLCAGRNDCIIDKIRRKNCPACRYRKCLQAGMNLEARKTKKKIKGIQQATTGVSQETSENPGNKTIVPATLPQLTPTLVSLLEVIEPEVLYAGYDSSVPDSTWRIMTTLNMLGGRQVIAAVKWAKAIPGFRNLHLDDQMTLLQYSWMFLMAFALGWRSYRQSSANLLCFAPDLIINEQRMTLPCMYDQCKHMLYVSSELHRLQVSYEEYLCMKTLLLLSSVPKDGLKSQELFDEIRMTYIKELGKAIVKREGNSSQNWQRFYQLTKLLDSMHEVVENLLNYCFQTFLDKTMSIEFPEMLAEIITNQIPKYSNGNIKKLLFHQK
# Outline: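 Radioligand competition using 100 μg IM-9 cell cytosol and 1.5 nM [3H]-dexamethasone, incubated 6 h at 4° C in TES/molybdate buffer, pH 7.4. Filtration on PEI-treated GF/B filters, scintillation counting; nonspecific binding defined with 10 μM triamcinolone.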
Structure (SMILES),IC50 [1] [nM],IC50 [2] [nM]
"CC(=O)C1=C(C)NC(C2CC2)=C(C(=O)OCc2ccncc2)C1c1csc2c(Br)cccc12 (stereo not drawn) [Example J41, Pyridin-4-ylmethyl 5-acetyl-4-(7-bromobenzo[b]thiophen-3-yl)-2-cyclopropyl-6-methyl-1,4-dihydropyridine-3-carboxylate]",< 100,< 100
"CC(=O)C1=C(C)NC(C2CC2)=C(C(=O)OCc2ccc(F)cc2)C1c1csc2ncccc12 (stereo not drawn) [Example J42, 4-fluorobenzyl 5-acetyl-2-cyclopropyl-6-methyl-4-(thieno[2,3-b]pyridin-3-yl)-1,4-dihydropyridine-3-carboxylate]",100 to 1000,< 100

# Continued, values first:
IC50 [1] [nM],IC50 [2] [nM],Structure (SMILES)
≥ 1000,< 100,"CC(=O)C1=C(C)NC(C)=C(C(=O)OCc2ccc(-c3ccncc3)cc2)C1c1csc2ncccc12 (stereo not drawn) [Example L1, 4-(pyridin-4-yl)benzyl 5-acetyl-2,6-dimethyl-4-(thieno[2,3-b]pyridin-3-yl)-1,4 dihydropyridine-3-carboxylate]"
≥ 1000,< 100,"CC(=O)C1=C(C)NC(C)=C(C(=O)OCc2ccc(-c3cccnc3)cc2)C1c1csc2ncccc12 (stereo not drawn) [Example L2, 4-(pyridin-3-yl)benzyl 5-acetyl-2,6-dimethyl-4-(thieno[2,3-b]pyridin-3-yl)-1,4-dihydropyridine-3-carboxylate]"
< 100,< 100,"CC(=O)C1=C(C)NC(C)=C(C(=O)OCc2cccc(-c3ccncc3)c2)C1c1csc2ncccc12 (stereo not drawn) [Example L3, 3-(pyridin-4-yl)benzyl 5-acetyl-2,6-dimethyl-4-(thieno[2,3-b]pyridin-3-yl)-1,4-dihydropyridine-3-carboxylate]"
< 100,< 100,"CC(=O)C1=C(C)NC(C)=C(C(=O)OCc2cccc(-c3cccnc3)c2)C1c1csc2ncccc12 (stereo not drawn) [Example L4, 3-(pyridin-3-yl)benzyl 5-acetyl-2,6-dimethyl-4-(thieno[2,3-b]pyridin-3-yl)-1,4-dihydropyridine-3-carboxylate]"
